Experimental data: PMC11600510 (Journal of Chemical Information and Modeling, 2024)

Tests used:
[1] = tested on: Vero E6 cells; experiment: MTT toxicity assay in Vero E6 cells; format: cell-based; conditions: 48 h
Procedure: (§1) Chemical compounds were dissolved and serially diluted in DMSO. Their cytotoxicity was assessed using an MTT assay. Briefly, HEK293T, SH-SY5Y or Vero E6 cells were cultured in 96-well plates (4 × 10^4 cells/well) at 37 °C in a 5% CO2 atmosphere. Cells were treated for 48 h with varying concentrations of the compounds (100–0.1 μM) or solvent. […] Treated cells were incubated for 4 h with […] MTT (Applichem). After incubation, the MTT-containing medium was removed and formazan crystals were dissolved in DMSO. The optical density (OD) of formazan solution at 570 and 630 nm was measured in a SPARK plate reader (Tecan).

[2] = target: T1, Spike RBD/ACE2 (19–615) interaction (Severe acute respiratory syndrome coronavirus 2, UniProt P0DTC2); experiment: cell-based; format: cell-based, SARS-CoV-2
T1 construct: S protein RBD (aa residues 319–541) of SARS-CoV-2; expressed in transfected cells; host or cells: HEK293T

[3] = tested on: HEK293T cells; experiment: MTT cytotoxicity assay in HEK293T cells; format: cell-based; conditions: 100 μM, 48 h
Procedure: as §1

Compound	toxicity against Vero E6 cells [1]	melting point	inhibition at 10 µM ([2]; HEK-293T, 48 h, read-out: suppression of Spike RBD/ACE2 (19–615) interaction) [%]	cytotoxicity [3]	suppression of Spike/ACE2 interaction ([2]; 100 μM) [%]
O=[N+]([O-])c1ccc(/C=C/C[n+]2cn(CCc3ccc4ccccc4c3)c3ccccc32)cc1.[Br-] [CKP-47, (E)-1-(2-(Naphthalen-2-yl)ethyl)-3-(3-(4-nitrophenyl)allyl)-1H-benzo[d]imidazol-3-ium Bromide]	toxic	176 to 177 °C (dec.)	34		
Cc1cc(O)c2c(c1)C(=O)c1cc(O)cc(O)c1C2=O [Emodin, reference compound]				non-cytotoxic	~27
